In PMC4008261, “Rewiring of regenerated axons by combining treadmill training with semaphorin3A inhibition” (Molecular Brain, 2014):

Tests used:
Chemokine CCR1 = Chemokine CCR1 (Homo sapiens, UniProt P32246); assay: Pharmacological profile: receptor binding assay
From the text: (§1) Table 1 Pharmacological profile of SM-345431 (part 1) | column: IC50 (μm)

Chemokine CCR2B = Chemokine CCR2B (Homo sapiens, UniProt P41597); assay: Pharmacological profile: receptor binding assay
From the text: as §1

Chemokine CCR4 = Chemokine CCR4 (Homo sapiens, UniProt P51679); assay: Pharmacological profile: receptor binding assay
From the text: as §1

Chemokine CCR5 = Chemokine CCR5 (Homo sapiens, UniProt P51681); assay: Pharmacological profile: receptor binding assay
From the text: as §1

Chemokine CXCR2 (IL-8B) = Chemokine CXCR2 (IL-8B) (Homo sapiens, UniProt P25025); assay: Pharmacological profile: receptor binding assay
From the text: as §1

Glucocorticoid = Glucocorticoid (Homo sapiens, UniProt P04150); assay: Pharmacological profile: receptor binding assay
From the text: as §1

[1] = target: Tumor Necrosis Factor (TNF), Non-selective; assay: Pharmacological profile: receptor binding assay
From the text: as §1

[2] = tested on: Adhesion, ICAM-1-Mediated; assay: Pharmacological profile: cell adhesion; format: cell-based
From the text: as §1

[3] = tested on: Adhesion, VCAM-1-Mediated; assay: Pharmacological profile: cell adhesion; format: cell-based
From the text: as §1

[4] = tested on: Adhesion, fibronectin-mediated; assay: Pharmacological profile: cell adhesion; format: cell-based
From the text: as §1

[5] = tested on: Cell proliferation, B-Cell+LPS; assay: Pharmacological profile: cell proliferation; format: cell-based
From the text: as §1

[6] = tested on: Cell proliferation, T-Cell+Con A; assay: Pharmacological profile: cell proliferation; format: cell-based
From the text: as §1

semaphorin3A = target: T1, semaphorin3A (Homo sapiens, UniProt Q14563); assay: Growth cone collapse assay, E8 chick DRG; format: cell-based; design: expressed in transfected cells; host or cells: COS7; details: read-out: semaphorin3A inhibiting activity, IC50
T1 sequence (Q14563 21-771): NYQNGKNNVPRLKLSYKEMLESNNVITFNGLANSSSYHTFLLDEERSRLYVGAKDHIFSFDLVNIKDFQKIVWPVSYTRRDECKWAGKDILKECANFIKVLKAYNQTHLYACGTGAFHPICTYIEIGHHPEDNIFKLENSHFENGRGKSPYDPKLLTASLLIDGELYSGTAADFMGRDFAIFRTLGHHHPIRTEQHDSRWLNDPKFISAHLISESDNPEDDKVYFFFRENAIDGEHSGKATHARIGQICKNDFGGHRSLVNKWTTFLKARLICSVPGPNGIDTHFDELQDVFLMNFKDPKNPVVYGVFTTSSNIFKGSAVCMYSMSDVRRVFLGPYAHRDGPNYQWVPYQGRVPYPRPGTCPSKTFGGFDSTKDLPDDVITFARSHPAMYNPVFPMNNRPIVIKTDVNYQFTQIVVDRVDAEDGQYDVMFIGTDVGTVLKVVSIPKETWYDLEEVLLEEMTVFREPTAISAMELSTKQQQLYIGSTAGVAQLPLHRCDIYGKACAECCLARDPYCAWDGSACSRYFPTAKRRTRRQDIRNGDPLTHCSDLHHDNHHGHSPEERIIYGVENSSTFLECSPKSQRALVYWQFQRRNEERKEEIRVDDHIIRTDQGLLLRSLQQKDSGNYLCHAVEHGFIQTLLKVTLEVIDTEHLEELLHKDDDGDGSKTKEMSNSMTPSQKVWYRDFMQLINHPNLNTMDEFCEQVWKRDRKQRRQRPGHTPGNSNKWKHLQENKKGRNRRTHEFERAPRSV
Method: The growth cone collapse assay and collagen co-culture experiments were performed as previously described. To examine the effects of SM-345431-silicone, small pieces (2 × 1 × 0.3 mm; approximately 1 mg containing 1 μg of SM-345431) of the SM-345431-silicone or control-silicone were placed in a collagen gel adjacent to E8 chick DRGs and COS7 cell aggregates, as shown in Figure 1C.

Sequence of Chemokine CCR1 (P32246 whole entry): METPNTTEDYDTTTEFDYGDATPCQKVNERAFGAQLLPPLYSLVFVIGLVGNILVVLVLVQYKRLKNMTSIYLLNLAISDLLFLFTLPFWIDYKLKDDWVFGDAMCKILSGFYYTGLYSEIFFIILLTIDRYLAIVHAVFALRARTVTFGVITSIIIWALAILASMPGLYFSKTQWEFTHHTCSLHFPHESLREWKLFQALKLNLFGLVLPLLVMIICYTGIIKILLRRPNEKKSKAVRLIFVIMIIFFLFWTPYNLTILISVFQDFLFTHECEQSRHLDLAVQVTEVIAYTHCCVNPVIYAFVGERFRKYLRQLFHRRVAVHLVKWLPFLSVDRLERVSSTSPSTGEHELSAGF
Sequence of Chemokine CXCR2 (IL-8B) (P25025 whole entry): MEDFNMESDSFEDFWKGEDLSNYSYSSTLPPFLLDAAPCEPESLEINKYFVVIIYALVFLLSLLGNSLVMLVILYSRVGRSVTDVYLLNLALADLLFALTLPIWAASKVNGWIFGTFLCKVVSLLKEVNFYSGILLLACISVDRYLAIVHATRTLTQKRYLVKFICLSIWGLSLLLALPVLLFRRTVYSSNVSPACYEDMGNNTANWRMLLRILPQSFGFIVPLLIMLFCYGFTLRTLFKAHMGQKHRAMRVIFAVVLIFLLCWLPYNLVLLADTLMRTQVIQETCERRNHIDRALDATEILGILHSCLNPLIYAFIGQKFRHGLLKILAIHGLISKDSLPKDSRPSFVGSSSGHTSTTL
Sequence of Chemokine CCR2B (P41597 1-360 isoform P41597-2): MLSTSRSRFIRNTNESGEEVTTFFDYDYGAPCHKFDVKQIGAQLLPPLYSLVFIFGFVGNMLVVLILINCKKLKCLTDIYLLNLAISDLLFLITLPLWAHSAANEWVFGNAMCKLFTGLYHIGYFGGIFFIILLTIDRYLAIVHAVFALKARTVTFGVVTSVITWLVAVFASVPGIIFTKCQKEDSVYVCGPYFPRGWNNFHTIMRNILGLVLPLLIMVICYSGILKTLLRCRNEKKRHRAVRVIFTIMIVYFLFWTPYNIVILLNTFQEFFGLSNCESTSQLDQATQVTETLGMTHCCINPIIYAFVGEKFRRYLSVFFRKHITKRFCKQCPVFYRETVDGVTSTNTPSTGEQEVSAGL
Sequence of Glucocorticoid (P04150 whole entry): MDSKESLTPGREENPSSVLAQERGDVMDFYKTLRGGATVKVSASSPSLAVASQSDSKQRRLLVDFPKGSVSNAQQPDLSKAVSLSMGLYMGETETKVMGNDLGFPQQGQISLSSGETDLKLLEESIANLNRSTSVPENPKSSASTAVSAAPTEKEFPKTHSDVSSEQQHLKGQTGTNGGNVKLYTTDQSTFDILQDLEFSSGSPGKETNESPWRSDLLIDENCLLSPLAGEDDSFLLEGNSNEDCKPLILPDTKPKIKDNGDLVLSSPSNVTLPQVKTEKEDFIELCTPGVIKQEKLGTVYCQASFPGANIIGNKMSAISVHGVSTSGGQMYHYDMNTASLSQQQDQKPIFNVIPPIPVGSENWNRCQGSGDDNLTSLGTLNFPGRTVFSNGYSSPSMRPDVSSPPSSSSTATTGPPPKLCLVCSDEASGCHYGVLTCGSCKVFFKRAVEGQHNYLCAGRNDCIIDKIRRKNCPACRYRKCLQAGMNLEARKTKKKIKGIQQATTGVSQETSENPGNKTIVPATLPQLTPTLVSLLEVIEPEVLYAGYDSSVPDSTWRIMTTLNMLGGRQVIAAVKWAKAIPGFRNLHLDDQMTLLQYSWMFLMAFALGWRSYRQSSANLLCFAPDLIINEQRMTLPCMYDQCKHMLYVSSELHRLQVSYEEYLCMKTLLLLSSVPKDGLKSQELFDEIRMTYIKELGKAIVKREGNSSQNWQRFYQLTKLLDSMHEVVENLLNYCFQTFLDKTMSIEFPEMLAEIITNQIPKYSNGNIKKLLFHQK
Sequence of Chemokine CCR4 (P51679 whole entry): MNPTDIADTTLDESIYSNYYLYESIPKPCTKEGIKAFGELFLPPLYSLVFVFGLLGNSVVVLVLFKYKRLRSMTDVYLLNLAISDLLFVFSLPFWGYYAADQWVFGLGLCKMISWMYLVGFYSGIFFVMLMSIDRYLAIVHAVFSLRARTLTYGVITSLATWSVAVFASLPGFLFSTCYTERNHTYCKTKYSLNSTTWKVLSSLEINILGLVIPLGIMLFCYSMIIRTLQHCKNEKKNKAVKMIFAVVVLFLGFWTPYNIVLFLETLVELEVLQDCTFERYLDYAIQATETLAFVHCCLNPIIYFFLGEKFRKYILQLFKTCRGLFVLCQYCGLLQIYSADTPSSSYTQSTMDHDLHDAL
Sequence of Chemokine CCR5 (P51681 whole entry): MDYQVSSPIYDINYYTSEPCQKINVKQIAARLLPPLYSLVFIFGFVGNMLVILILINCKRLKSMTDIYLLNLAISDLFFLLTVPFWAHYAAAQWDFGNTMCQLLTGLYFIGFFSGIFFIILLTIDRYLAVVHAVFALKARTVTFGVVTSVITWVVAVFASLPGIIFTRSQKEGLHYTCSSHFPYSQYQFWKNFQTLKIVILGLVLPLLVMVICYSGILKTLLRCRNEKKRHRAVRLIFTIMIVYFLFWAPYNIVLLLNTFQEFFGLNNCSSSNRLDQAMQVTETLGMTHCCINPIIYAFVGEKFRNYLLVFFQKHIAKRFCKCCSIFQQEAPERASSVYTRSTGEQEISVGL

SMILES: CC(=O)c1cc2c(=O)c3c(C(=O)O)c(O)c(O)cc3oc2c(C(C)=O)c1-c1coc2cc(O)c(O)c(C(=O)O)c2c1=O [SM-345431, Vinaxanthone]
- IC50 (Chemokine CCR1): > 10 µM
- IC50 (Chemokine CCR2B): > 10 µM
- IC50 (Chemokine CCR4): > 10 µM
- IC50 (Chemokine CCR5): > 10 µM
- IC50 (Chemokine CXCR2 (IL-8B)): > 10 µM
- IC50 (Glucocorticoid): > 10 µM
- IC50 [1]: > 10 µM
- IC50 [2]: > 10 µM
- IC50 [3]: > 10 µM
- IC50 [4]: > 10 µM
- IC50 [5]: > 10 µM
- IC50 [6]: > 10 µM
- IC50 (semaphorin3A): 0.1 to 0.2 µM
